Reference: US9341616B2, “Sweet taste receptor chimeric proteins and use thereof” (AJINOMOTO CO., INC., priority 2014, dated 2016)
Residues, ends and D or L forms follow the SMILES beside them.

These compounds were tested against h-mT1R2-471/T1R3mosaicA (UniProt Q8TE23+Q925D8, A12W/A31M/A537S/A558R/A564V/A568V/A570T/A588V/A645S/A649T/A658V/A698V/A702T/A782V/A793V/A807V/C582S/C678S/D480N/E16H/E530V/E534N/E542M/E548N/E725V/F14L/F29L/F525Y/F541I/F612A/F622V/F665L/F695L/G696N/G701T/H484Y/H528R/H728R/I36V/I481V/I486P/I490V/I510L/I518V/I595M/I60P/I617V/I643V/I645L/I692L/I695G/I706V/I740A/I803L/K30R/K476T/K504M/K555R/K565R/K626T/K714N/K818R/K827G/L17P/L471T/L521P/L560F/L571I/L578I/L610P/L631F/L636F/L639V/L684P/L688V/L702I/L734M/L735F/L800F/L823M/L825Q/M19T/M492I/M616G/M644L/M682V/M690V/M744T/M748V/N477Y/N52R/N540G/N541S/N547G/N58S/N63T/N675D/N721H/P545F/P561R/P564S/P61V/P638T/P824S/Q32K/Q472E/Q474R/Q479S/Q536L/Q53S/Q546K/Q550E/Q555R/Q56R/Q611L/Q676H/Q757R/Q795R/Q831P/R473T/R498S/R632Q/R667S/S22P/S45E/S501P/S547N/S550A/S576L/S595F/S610P/S628F/S635P/S637R/S663R/S670G/S679G/S681F/S703N/S717H/S727G/S784D/S804G/T46A/T50G/T529S/T542A/T549I/T609V/T629S/T642S/T663I/T694M/T705I/T706G/T716I/T813A/V508I/V512P/V557A/V573A/V584A/V585L/V613L/V617M/V673M/V687A/V691A/V694A/V718L/V718M/V723A/V729T/V738A/V741L/V774I/V791M/V805L/V812A/V821L/W599R/W676R/W824R/Y533F/Y615F/Y671F/Y680C/Y769S/Y783H/Y794L). Settings: Table 4; genes h-mT471/T3mA (h-mT1R2-471, T1R3mA); HEK293E cells.
Sequence of h-mT1R2-471/T1R3mosaicA (Q8TE23 with tags, fused parts or gaps with the stated changes limits assumed): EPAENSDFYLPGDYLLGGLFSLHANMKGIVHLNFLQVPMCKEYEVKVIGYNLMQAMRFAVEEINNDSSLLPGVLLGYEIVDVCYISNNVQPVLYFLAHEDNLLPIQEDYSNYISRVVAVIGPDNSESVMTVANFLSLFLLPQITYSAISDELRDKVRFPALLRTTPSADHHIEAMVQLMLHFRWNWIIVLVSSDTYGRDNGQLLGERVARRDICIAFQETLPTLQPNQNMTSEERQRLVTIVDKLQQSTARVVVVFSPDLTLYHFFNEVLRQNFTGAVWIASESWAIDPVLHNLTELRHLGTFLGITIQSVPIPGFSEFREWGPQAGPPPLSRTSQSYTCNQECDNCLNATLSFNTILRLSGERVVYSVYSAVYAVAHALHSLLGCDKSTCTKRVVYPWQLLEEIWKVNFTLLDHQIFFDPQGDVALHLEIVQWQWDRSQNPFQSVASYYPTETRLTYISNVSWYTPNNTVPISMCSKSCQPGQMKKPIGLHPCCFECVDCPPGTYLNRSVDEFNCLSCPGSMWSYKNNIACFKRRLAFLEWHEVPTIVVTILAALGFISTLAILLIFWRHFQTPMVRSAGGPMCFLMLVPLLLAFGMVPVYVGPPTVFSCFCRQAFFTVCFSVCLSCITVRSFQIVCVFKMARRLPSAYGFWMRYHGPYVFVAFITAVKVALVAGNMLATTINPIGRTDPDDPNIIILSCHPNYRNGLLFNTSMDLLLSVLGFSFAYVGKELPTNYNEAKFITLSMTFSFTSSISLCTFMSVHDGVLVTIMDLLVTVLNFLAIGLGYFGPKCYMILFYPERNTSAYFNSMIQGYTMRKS
Sequence of h-mT1R2-471/T1R3mosaicA (Q925D8 with tags, fused parts or gaps with the stated changes limits assumed): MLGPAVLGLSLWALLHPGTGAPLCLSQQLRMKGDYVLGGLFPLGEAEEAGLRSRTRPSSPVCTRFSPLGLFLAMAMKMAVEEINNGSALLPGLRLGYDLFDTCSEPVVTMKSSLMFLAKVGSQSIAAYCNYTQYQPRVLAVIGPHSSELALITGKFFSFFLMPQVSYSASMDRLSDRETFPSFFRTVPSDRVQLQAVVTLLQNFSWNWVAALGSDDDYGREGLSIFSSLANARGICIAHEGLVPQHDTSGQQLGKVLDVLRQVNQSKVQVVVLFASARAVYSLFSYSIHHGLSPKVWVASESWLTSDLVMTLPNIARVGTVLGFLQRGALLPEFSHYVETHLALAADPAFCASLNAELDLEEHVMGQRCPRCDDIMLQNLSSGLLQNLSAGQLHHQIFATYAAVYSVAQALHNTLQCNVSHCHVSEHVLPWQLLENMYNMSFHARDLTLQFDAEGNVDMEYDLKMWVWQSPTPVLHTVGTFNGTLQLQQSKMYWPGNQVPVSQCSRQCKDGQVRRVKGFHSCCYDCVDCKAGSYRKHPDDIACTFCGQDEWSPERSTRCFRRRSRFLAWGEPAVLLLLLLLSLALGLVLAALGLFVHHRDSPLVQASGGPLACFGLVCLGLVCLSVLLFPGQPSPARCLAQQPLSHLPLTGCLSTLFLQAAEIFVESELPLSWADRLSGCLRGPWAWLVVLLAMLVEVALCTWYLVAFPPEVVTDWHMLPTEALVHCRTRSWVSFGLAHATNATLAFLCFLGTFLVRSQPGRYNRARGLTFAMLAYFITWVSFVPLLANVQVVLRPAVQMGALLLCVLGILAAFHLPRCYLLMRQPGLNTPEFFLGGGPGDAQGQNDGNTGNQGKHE

| SMILES | S/N |
| --- | --- |
| OC[C@H]1O[C@@](CO)(O[C@H]2O[C@H](CO)[C@@H](O)[C@H](O)[C@H]2O)[C@@H](O)[C@@H]1O [Sucrose, sucrose] | 3.5 |
| O=C1NS(=O)(=O)c2ccccc21.[Na] [Saccharin Na, sodium saccharin] | 3.9 |
| COC(=O)[C@H](Cc1ccccc1)NC(=O)[C@@H](N)CC(=O)O [Aspartame, aspartame] (HELM PEPTIDE1{D.F.[CO[*:1]]}$$$$V2.0) | 7.9 |
| COC(=O)[C@H](Cc1ccccc1)NC(=O)[C@H](CC(=O)O)NCCCc1ccc(OC)c(O)c1 [Advantame, advantame] | 10.0 |
| CC1=CC(=O)NS(=O)(=O)O1 [Acesulfame K, acesulfame potassium] | 4.3 |
| COC(=O)[C@H](Cc1ccccc1)NC(=O)[C@H](CC(=O)O)NCCC(C)(C)C [Neotame, neotame] | 8.3 |
| C[C@H](NC(=Nc1ccc(C#N)cc1)NCC(=O)O)c1ccccc1 [SC-45647, [3-[(S)-1-phenylethyl]-2-(4-cyanophenyl)guanidino]acetic acid] | 6.5 |
| OC[C@H]1O[C@H](O[C@]2(CCl)O[C@H](CCl)[C@@H](O)[C@@H]2O)[C@H](O)[C@@H](O)[C@H]1Cl [Sucralose, sucralose] | 7.1 |
